Structures are written as SMILES.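 All cell lines were grown in 96-well plates and treated with compound for 48 hours. GI50 = concentration required for 50% inhibition of growth.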 Activity calls are given as the source filed them. No stated cut-off is given here; in the data, active = GI50 up to about 1.1 µM and inactive = higher.

Among the test systems are CAKI-1; SK-OV-3; SN12C; SNB-75; MOLT-4; CCRF-CEM; HT-29; OVCAR-4; RXF 393; EKVX; RPMI-8226; UACC-62; ACHN; OVCAR-3; A549; SK-MEL-2; UO-31; SF-268.
Holding throughout (experiment): NCI anticancer screen, dose series, 48 h

As for `COc1ccc2oc(C(=O)O)c3c2c1CCC3`, the GI50 with CAKI-1, with SK-OV-3, with SN12C, in the assay on SNB-75, with MOLT-4 and in the assay with CCRF-CEM was > 100 µM (inactive) in each case. The GI50 in the assay on HT-29, in the assay on OVCAR-4, in the assay on RXF 393, with EKVX, in the assay on RPMI-8226 and in the assay with UACC-62 was > 100 µM (inactive) throughout. In addition, the GI50 in the assay with ACHN, in the assay on OVCAR-3 and in the assay on A549 was > 100 µM (inactive) in each case.
As for `O=C1c2ccccc2CC1C1(O)C(=O)Nc2ccccc21` (stereo unspecified), the GI50 was > 100 µM (inactive) in the assay on CAKI-1; > 100 µM (inactive) with SK-OV-3; > 100 µM (inactive) in the assay on SN12C; > 100 µM (inactive) with SK-MEL-2; 87.3 µM (inactive) with SNB-75; > 100 µM (inactive) with MOLT-4. For the same compound, the GI50 in the assay on HT-29, in the assay with OVCAR-4, in the assay with RXF 393, in the assay on EKVX, in the assay with RPMI-8226 and with UACC-62 was > 100 µM (inactive) throughout. The GI50 is > 100 µM (inactive) in the assay with ACHN; > 100 µM (inactive) in the assay with OVCAR-3; > 100 µM (inactive) with A549; 34.6 µM (inactive) in the assay with UO-31; > 100 µM (inactive) in the assay with SF-268.
Turning to `O=C1Nc2cc(F)ccc2C1=O`, the GI50 with CAKI-1, in the assay on SK-OV-3, in the assay on SN12C, with SK-MEL-2, in the assay with SNB-75 and with MOLT-4 was > 100 µM (inactive) in each case. In addition, the GI50 in the assay on CCRF-CEM, in the assay on HT-29, in the assay on OVCAR-4, with RXF 393, with EKVX and in the assay on RPMI-8226 was > 100 µM (inactive) in each case. Besides, the GI50 in the assay with UACC-62, with ACHN, in the assay on A549, in the assay on UO-31 and in the assay on SF-268 was > 100 µM (inactive) throughout.
Regarding `CC1=C(C(=O)NNC(=O)CC#N)CC(C(=O)NNC(=O)CC#N)=C(C)N1`, the GI50 with CAKI-1, in the assay with SK-OV-3, with SN12C, with SK-MEL-2, in the assay on SNB-75 and in the assay on MOLT-4 was > 100 µM (inactive) each time. Further, the GI50 in the assay with HT-29, with OVCAR-4, in the assay with RXF 393, in the assay on EKVX, in the assay on ACHN and in the assay on OVCAR-3 was > 100 µM (inactive) each time. Besides, the GI50 in the assay with A549, with UO-31 and in the assay on SF-268 was > 100 µM (inactive) throughout.
With `NC(=O)CCC(Nc1c2ccccc2[n+]([O-])c2ccccc12)C(=O)O` (stereo unspecified), the GI50 with SK-OV-3 is > 100 µM (inactive); with SN12C it was 71.8 µM (inactive); in the assay with SK-MEL-2 it was > 100 µM (inactive); in the assay with SNB-75, 26.7 µM (inactive); in the assay with MOLT-4, 55.1 µM (inactive); with CCRF-CEM it was 42.5 µM (inactive). The GI50 with OVCAR-4 is 84.1 µM (inactive); in the assay on EKVX it was > 100 µM (inactive); with RPMI-8226, 18.6 µM (inactive); in the assay with UACC-62 it was 51.3 µM (inactive); with ACHN, 36.6 µM (inactive); with OVCAR-3, 60.1 µM (inactive). Also, the values for the GI50 in the assay with A549, in the assay with UO-31 and in the assay with SF-268 were > 100 µM (inactive), 58.3 µM (inactive) and 64.7 µM (inactive), respectively.
`O=c1/c(=C/c2cccc([N+](=O)[O-])c2)sc2nc3ccccc3n12`: the GI50 is > 10 µM (inactive) with CAKI-1; 67.8 µM (inactive) in the assay with SK-OV-3; > 100 µM (inactive) in the assay with SN12C; > 100 µM (inactive) in the assay on SK-MEL-2; 32.8 µM (inactive) with SNB-75; > 100 µM (inactive) with CCRF-CEM. The GI50 in the assay on HT-29 is > 100 µM (inactive); in the assay on OVCAR-4, 52.4 µM (inactive); in the assay on RXF 393 it was > 100 µM (inactive); with EKVX it was 58.7 µM (inactive); in the assay on UACC-62, 0.446 µM (active); in the assay on ACHN, 84.7 µM (inactive). The GI50 was > 10 µM (inactive) with OVCAR-3, > 10 µM (inactive) with A549, > 100 µM (inactive) in the assay on UO-31 and 39.2 µM (inactive) with SF-268.
`Cc1ccc2oc(=O)cc(CC(=O)O)c2c1`: the GI50 in the assay with CAKI-1, in the assay on SK-OV-3, in the assay on SN12C, in the assay on SK-MEL-2, with SNB-75 and with MOLT-4 was > 100 µM (inactive) in each case. For the same compound, the GI50 in the assay with CCRF-CEM, in the assay on HT-29, with OVCAR-4, in the assay with RXF 393, in the assay with EKVX and with RPMI-8226 was > 100 µM (inactive) throughout. Besides, the GI50 with UACC-62, in the assay on ACHN, with OVCAR-3, with A549 and with SF-268 was > 100 µM (inactive) in each case.
With `C1=Cc2nc1c(-c1ccccc1)c1ccc([n-]1)c(-c1ccccc1)c1nc(c(-c3ccccc3)c3ccc([n-]3)c2-c2ccccc2)C=C1.[Zn+2]`, the GI50 with CAKI-1 was > 100 µM (inactive); with SK-OV-3, > 100 µM (inactive); in the assay on SN12C, > 100 µM (inactive); in the assay on SK-MEL-2 it was > 100 µM (inactive); in the assay on SNB-75, 67.5 µM (inactive); with MOLT-4 it was > 100 µM (inactive). The GI50 in the assay with CCRF-CEM was > 100 µM (inactive); with HT-29 it was > 100 µM (inactive); in the assay on OVCAR-4, > 100 µM (inactive); in the assay on EKVX, > 100 µM (inactive); with RPMI-8226, 75.7 µM (inactive); in the assay with UACC-62, > 100 µM (inactive). Further, the GI50 with ACHN, in the assay with OVCAR-3, in the assay on A549, in the assay with UO-31 and in the assay on SF-268 was > 100 µM (inactive) in each case.
Consider `COc1ccc(/N=N/c2c(-c3ccccc3)nn(C(=O)CC(=O)Nc3ccc(OC)cc3)c2-c2ccccc2)cc1`, for which the GI50 in the assay with CAKI-1 is > 100 µM (inactive); in the assay with SK-OV-3 it was 40.6 µM (inactive); with SN12C it was > 100 µM (inactive); in the assay on SK-MEL-2, 88.3 µM (inactive); in the assay on SNB-75, 16 µM (inactive); in the assay on MOLT-4, 31.8 µM (inactive). Further, the GI50 is 23.7 µM (inactive) with CCRF-CEM; > 100 µM (inactive) with HT-29; > 100 µM (inactive) in the assay on OVCAR-4; 71.1 µM (inactive) with EKVX; > 100 µM (inactive) in the assay with RPMI-8226; 42.1 µM (inactive) in the assay on UACC-62. Further, the GI50 in the assay with ACHN is 97.3 µM (inactive); in the assay with OVCAR-3, > 100 µM (inactive); with A549, > 100 µM (inactive); with UO-31, > 100 µM (inactive); in the assay with SF-268 it was 48.5 µM (inactive).

The values above are taken from ChEMBL document CHEMBL1201862, “PubChem BioAssay data set” (2004).
